These results are taken from US20120196766A1, “Therapeutic Use of Farnesyltransferase Inhibitors and Methods of Monitoring the Efficacy Thereof” (priority 2004, published 2012).

For orientation: inhibition means the relative decrease from the control value, in per cent.

One assay relates to human PBMC. The experiment in a line: LPS-induced cytokine production in human PBMC. The class given is cell-based. As to conditions: 2 or 5 μM, LPS 10 ng/ml, 10% FBS. The protocol: (§1) Human IL-6, IL18, IL1β, MCP-1, MMP-9, and mouse IL-6, IL18, TNFα, MCP-1 and IL-1β were measured with ELISA kits (R&D Systems) according to the manufacturer's instructions.
Heparinized human blood (25 ml) from a healthy donor was overlaid into a 50 ml conical tubes containing 20 ml Ficoll-Paque, and centrifuged for 20 min at 2000 rpm at room temperature and then allowed to stop without using the brake on the centrifuge. The upper layer was aspirated, leaving the mononuclear cell layer undisturbed at the interface. Cells were carefully transferred the to a new […] conical tube. The conical tube was filled with PBS, mixed and centrifuged at 1500 rpm for 15 minutes at room temperature. The supernatant was carefully and completely removed. The cell pellet was resupended in 50 ml of PBS and centrifuged at 1500 rpm for 5 minutes. This wash step was repeated once more. The cells were counted and resuspended cells at 1.7×10^6/ml in low-endotoxin RPMI1640/10% FBS.
Human PBMC (180 μl at 1.7×10^6/ml) were pipetted into each well of a 96-well plate. […] Cells were incubated at 37° C., under 5% CO2 for 1 hour, then 10 μl LPS (diluted in medium) were added per well to reach a final concentration of 10 ng/ml. Cells were cultured at 37° C., under 5% CO2. Supernatants were collected at 16 hours, 24 hours and 40 hours of LPS treatment, and IL-6 secretion was quantified.

For a further assay, the target named is farnesyltransferase (Homo sapiens, UniProt P49354+P49356). Conditions: cited from earlier work.
The subject of a further assay is NF-κB. As to conditions: cited from earlier work.
The test system of a further assay is BALB/c mice. Description: LPS-induced cytokine production in vivo (murine model of LPS-induced inflammation). As to conditions: Mus musculus; 50 mg/kg oral before LPS; 2 hours, first experiment; read-out: inhibition of MIP-1α production. The procedure:
The experiments were performed on female BALB/c mice (6-7 week old; Charles River Laboratories, Inc. MA). […] The control mice received the vehicle (20% cyclodextran) only. 20 μg LPS (Sigma), diluted in PBS, was injected into each mouse intraperitoneally. Blood samples were collected either by eye bleeding or cardiac puncture at 1 and 2 hours after LPS injection in one experiment, and at 2 and 3 hours after LPS injection in a second experiment. Plasma samples were collected by centrifugation, and stored at ≦−20° C. before being tested for cytokines using individual ELISA kits or Luminex analysis (see below).
as §1
Samples were tested for cytokines using the Bio-plex cytokine assay kit (Bio-Rad Laboratories, Inc.) according to the manufacturer's instructions. Briefly, 50 μL anti-cytokine antibody conjugated beads were added to wells of a filter plate pre-equilibrated with assay buffer. The beads were washed, then 50 μL of undiluted cell culture supernatant or 4-fold diluted plasma samples were added and incubated for 2 hours. Biotinylated anti-cytokine antibody (25 μL) was added to each well and the plate was incubated with shaking for 1.5 hours. Streptavidin-PE (50 μL) was added to each well and the plate was incubated with shaking for 45 min. between incubations, wells were washed 3 times with 100 μL wash buffer and unbound analytes were filtered using a vacuum manifold. Following the last wash step, 125 μL of assay buffer was added to each well and the plate was placed on a shaker for 10 min. The plate was read on a Luminex^100 instrument (Luminex Corporation, Austin, Tex.) according to the manufacturer's instructions. The concentration of cytokine was determined from a standard curve assayed at the same time.

In the case of `Cn1cncc1C(N)(c1ccc(Cl)cc1)c1ccc2c(c1)c(-c1cccc(Cl)c1)cc(=O)n2C` (single isomer, unassigned) [less active enantiomer], the “LPS-induced IL-6 production” value in the assay with human PBMC is listed as “No difference in production”. For the same molecule, the “fold less active than tipifarnib (R115777) for inhibition of farnesyltransferase” value at farnesyltransferase is recorded as “about 100 fold”. On to `NC(=O)N1CCC(CC(=O)N2CCC([C@H]3c4ncc(Br)cc4CCc4cc(Cl)cc(Br)c43)CC2)CC1` [SCH 66336, (+)-(R)-4-[2-[4-(3,10-dibromo-8-chloro-5,6-dihydro-11H-benzo[5,6]cyclohepta[1,2-b]pyridin-11-yl)piperidin-1-yl]-2-oxoethyl]piperidine-1-carboxamide], for which, in the assay on NF-κB, the “TNF-α induced NF-κB activity” value is listed as “inhibited”. With `CCC(C)(C)C(=O)O[C@H]1C[C@@H](C)C=C2C=C[C@H](C)[C@H](CC[C@@H]3C[C@@H](O)CC(=O)O3)[C@H]21` [simvastatin], in the assay with BALB/c mice, the inhibition at 50 mg/kg was ~50%.
